The source of these data is US5731452A, “7-thiaprostaglandins and method of production thereof” (Teijin Limited, priority 1994, dated 1998).

One test has as its system human platelet. Put plainly: Human platelet aggregation inhibiting activity. The class given is cell-based. As to conditions: 5 min, human plasma, adenosine 2-phosphate induced, 5 minutes at 37° C. The protocol: (§1) Wistar rats (males, approximately 400 g) were made to fast for one day, the entire blood was removed from the chest artery under anesthesia by ether, then a 1/10 volume of 3.8% aqueous solution of sodium citrate was added and immediately mixed in. The solution was centrifuged at 1000 rpm for 10 minutes, then the upper layer was used as the platelet rich plasma. The lower layer was centrifuged at 3000 rpm for 10 minutes and the upper layer of that was used as the platelet poor plasma. The platelet rich plasma was diluted by the platelet poor plasma to give a number of platelets of 3.5×10^8 /mm^3. This was used for the measurement. Note that the measurement of the platelets was performed using an automatic blood cell counter MEK-4500 (Nihon Koden). The measurement of the platelet aggregation was performed by measuring the turbidity using an NBS HEMA TRACER 801 (M.C. Medical). 90 μl of the platelet solution was inserted in a cuvette, then 5 μl each of the test compounds was added to give the target final concentration. The result was heated for one minute at 37° C., then 5 μl of a 100 μM aqueous solution of adenosine 2-phosphate (M.C. Medical) was added to induce platelet aggregation. The aggregation inhibiting activity was found from the following formula.
(§2) Aggregation inhibiting rate (%)={1-(maximum change of turbidity at time of
(§3) addition of drug)/(maximum change of turbidity at time of non-addition of
(§4) Further, the concentration of the compound giving 50% inhibition was used as the IC50.
50 ml portions of venous blood supplied from healthy human volunteers were used to prepare the platelet rich plasma and the platelet poor plasma in the same way as above. The measurement of the platelet aggregation was performed in the same way as above. However, unlike with the measurement of the rat platelet aggregation inhibiting activity, the test compound was added to the platelet poor plasma in advance and warmed for 5 minutes at 37° C., then the platelet rich plasma was added to give a number of platelets of 3.5×10^8 /mm^3. At the same time, 5 μl of 100 μM an aqueous solution of adenosine 2-phosphate (M.C. Medical) was added to induce platelet aggregation. The aggregation inhibiting activity was calculated in the same way as mentioned above.

Test [1] deals with cell migration induced by MCP-1 in human blood monocytes. The experiment in a line: Activity for inhibiting cell migration induced by MCP-1 (human blood monocytes). The class given is cell-based. The following applies: Monocyte, 2 h, 20 ng/ml recombinant human MCP-1, 37° C., two hours.
The test system of the next test is Rat Carotid Artery. The experiment in a line: Suppressing thickening of intima after trauma to rat carotid artery endothelium by balloon catheter. The class given is in vivo, Wistar rat. The following applies: for thickening of the neointima of the carotid artery (in words) / Suppression rate (intima thickening): 3.2 μg/rat/hr s.c.; for Intima (area) / Media (area) / Intima/Media: 3.2 μg/rat/hr s.c. miniosmotic pump, day 14, average ± standard error; for Intima (area): 3 days before to 11 days after surgery; for Intima (area) / Intima/Media: * p < 0.05 vs control; for Suppression rate (intima thickening): (1-T/C)×100 of Intima/Media. The procedure:
The test was performed in the following manner in accordance with the method of Clowes et al. (Lab. Invest., 49, 206, 1983). Male Wistar rats of a body weight of 300 to 350 g were used. The neck of each rat was opened under anesthesia by sodium pentobarbitol, then a balloon catheter (Fogarty, 2F) was inserted from the right external carotid artery until the starting portion of the common carotid artery. The balloon was expanded by saline to an extent causing a light resistance, then the catheter was pulled out in that state up to the carotid artery to give trauma to the intima. This procedure was repeated three times, then the catheter was withdrawn and the external carotid artery was ligated. After 14 days, the chest was opened under anesthesia by diethyl ether, refluxing and immobilization were performed from the aorti arch by a Karnoa solution (methanol:chloroform:acetic acid=6:3:1), then the right common carotid artery was excised and immobilized by neutral formalin solution. The immobilized carotid artery was dyed by Elastica van Gieson dye, then the areas of the media and thickened portion of the intima were measured by an image resolution device (LUZEX2D).
The test compound began to be administered subcutaneously at a rate of 3.2 μg/rat/hr using a miniosmotic pump buried in the back of the rat from three days before the surgery and was continued until 11 days after the surgery. The activity of the test compound in suppressing intima thickening was found from the following formula.

Another test has as its system Rabbit Carotid Artery. Put plainly: Suppressing thickening of intima after trauma to rabbit carotid artery endothelium by balloon catheter. Type of test: in vivo, New Zealand white rabbit. The procedure: The test was performed in the following manner in accordance with the method of Clowes et al. (Lab. Invest., 49, 206, 1983). Use was made of New Zealand white rabbits (male) of approximately 4 kg body weight. The neck portion of each rabbit was opened under anesthesia by sodium pentobarbitol, then a balloon catheter (Fogarty, 3F) was inserted from the right external carotid artery until the starting portion of the common carotid artery. The balloon was expanded by saline to an extent causing a light resistance, then the catheter was pulled out in that state up to the carotid artery to give trauma to the intima. This procedure was performed once, then the catheter was withdrawn and the external carotid artery was ligated. After 10 days, the chest was opened under anesthesia by pentobarbitol and the right common carotid artery was removed and immobilized by a neutral formalin solution. The immobilized carotid artery was dyed by Elastica van Gieson dye, then the areas of the media and intima were measured by an image resolution device (LUZEX2D).
The test compound began to be administered subcutaneously at a rate of 32 μg/rabbit/hr using a miniosmotic pump buried in the back of the rabbit from three days before the surgery and was continued until 10 days after the surgery. The activity of the test compound in inhibiting intima thickening was found from the following formula.
Intima thickening suppression rate (%)=(1-T/C)×100

Another test concerns rat platelet. The experiment in a line: Rat platelet aggregation inhibiting activity. The class given is cell-based. As to conditions: rat platelet rich plasma; adenosine 2-phosphate induced; 37° C., one minute. The protocol:
as §1, §2, §3, §4

Setting [2] is: 32 μg/rabbit/hr s.c. miniosmotic pump, day 10, average ± standard error.

Molecules are shown by their SMILES.

In turn, `CCCC(=O)OC1=C(SCCCCCC(=O)OC)[C@@H](/C=C/[C@@H](O)C2CCCCC2)[C@H](O)C1` [drawing 182] had an IC50 in the test on human platelet of 120 nM.
Regarding `CCCCC(C)CC(O)/C=C/[C@@H]1C(SCCCCCC(=O)OC)=C(OC(=O)CCC)C[C@H]1O` (stereo partly drawn), in test [1], the IC50 worked out at 1 nM.
As to `CCCC(=O)OC1=C(SCCCCCC(=O)OC)[C@@H](/C=C/[C@@H](O)C2CCCCC2)[C@H](O)C1` [Example 17, methyl(11R,12S,13E,15S)-9-butyryloxy-11,15-dihydroxy-15-cyclohexyl-16,17,18,19,20-pentanor-7-thiaprosta-8,13-dienoate], in the test with Rat Carotid Artery, the “thickening of the neointima of the carotid artery (in words)” value is “suppresses the thickening of the neointima of the carotid artery”, the “Intima (area)” value was 0.167 mm^2, the “Media (area)” value amounted to 0.211 mm^2 and the Intima/Media turned out to be 0.784. Further, in the test with Rat Carotid Artery, the “Suppression rate (intima thickening)” value is listed as 37.5%.
`CCCC[C@@H](C)C[C@H](O)/C=C/[C@@H]1C(SCCCCCC(=O)OC)=C(OC(=O)CCC)C[C@H]1O` [Example 2, methyl(11R,12S,13E,15S,17R)-9-butyryloxy-11,15-dihydroxy-17,20-dimethyl-7-thiaprosta-8,13-dienoate]: in the test on Rat Carotid Artery, the “thickening of the neointima of the carotid artery (in words)” value is “suppresses the thickening of the neointima of the carotid artery”, the “Intima (area)” value came to 0.155 mm^2, the “Media (area)” value is 0.197 mm^2 and the Intima/Media turned out to be 0.758. Moreover, the “Suppression rate (intima thickening)” value in the test on Rat Carotid Artery stood at 45.8%. Also, the “Intima (area)” value in the test on Rabbit Carotid Artery (32 μg/rabbit/hr s.c. miniosmotic pump, 3 days before to 10 days after surgery, day 10, average ± standard error) came out at 0.055 mm^2. Besides, in the test on Rabbit Carotid Artery (setting [2]), the Intima/Media stood at 0.152 and the “Media (area)” value was determined as 0.367 mm^2. Moreover, the “Suppression rate (intima thickening)” value with Rabbit Carotid Artery ((1-T/C)×100 of Intima/Media, 32 μg/rabbit/hr s.c.) is on record as 29.9%.
`CCCCC(C)C[C@H](O)/C=C/[C@@H]1C(SCCCOCC(=O)OC)=C(OC(=O)CCC)C[C@H]1O` (stereo partly drawn) [drawing 187] displayed an IC50 in the test with human platelet of 59 nM.
As to `CCCC(=O)OC1=C(SCCCCCC(=O)OC)[C@@H](/C=C/C(O)[C@H](C)c2ccccc2)[C@H](O)C1` (stereo partly drawn) [drawing 185], the IC50 in the test on human platelet turned out to be 49 nM.
`CCCCC[C@H](O)/C=C/[C@@H]1C(SCCCCCC(=O)OC)=C(OC(=O)CCC)C[C@H]1O` yielded an IC50 in the test with rat platelet of 629 nM.
Compound `CCCCC(C)C[C@H](O)/C=C/[C@@H]1C(SCCCCCC(=O)OC)=C(OC(=O)CCC)C[C@H]1O` (stereo partly drawn) [drawing 183] yielded an IC50 in the test on human platelet of 58 nM.
Turning to `CCCC(=O)OC1=C(SCCCCCC(=O)OC)[C@@H](/C=C/C(O)C(C)c2ccccc2)[C@H](O)C1` (stereo partly drawn) [drawing 186], half-maximal inhibition in the test with human platelet (IC50) required 105 nM.
The same measure, in the same setting: under `CCCC(=O)OC1=C(SCCCCCC(=O)OC)[C@@H](/C=C/C(O)Cc2ccccc2)[C@H](O)C1` (stereo partly drawn) [drawing 184] stands 50 nM.
In the test on rat platelet, `CCCCC(C)C[C@H](O)/C=C/[C@@H]1C(SCCCCCC(=O)OC)=C(OC(C)=O)C[C@H]1O` (stereo partly drawn) had an IC50 of 52 nM.
The same measure, in the same setting: under `CCCCC[C@H](O)/C=C/[C@@H]1C(SCCCCCC(=O)O)=C(OC(=O)CCC)C[C@H]1O` [drawing 181] stands 300 nM.
The compound `CCCC(=O)OC1=C(SCCCCCC(=O)OC)[C@@H](/C=C/[C@@H](O)C2CCCC2)[C@H](O)C1` [drawing 176] registered an IC50 with rat platelet of 284 nM.
`CCCC(=O)OC1=C(SCCCCCC(=O)OC)[C@@H](/C=C/[C@@H](O)C2CCCCC2)[C@H](O)C1` [drawing 177] registered an IC50 with rat platelet of 73 nM.
`CCCCC(C)C[C@H](O)/C=C/[C@@H]1C(SCCCCCC(=O)OC)=C(OC(=O)CCC)C[C@H]1O` (stereo partly drawn) [drawing 170]: the IC50 with rat platelet was 129 nM.

What is called IC50 is the concentration at which inhibition is half-maximal.
